Test results taken from patent US20260295053A1, “COMPOUNDS FOR DEGRADATION AND INHIBITION OF KRAS (G12D) PROTEIN” (Shenzhen Ionova Life Science Co., Ltd., priority 2023, published 2026).

Key:
KRAS (G12D) = target: T1, KRAS (G12D) (Homo sapiens, UniProt P01116, G12D); test: KRAS (G12D) cellular degradation assay in AsPC-1 cells; assay type: cell-based; conditions: 24 hours, antibody fluorescence (Odyssey CLX), DC50 half-maximal degradation concentration
T1 construct: in-cell western with KRAS G12D antibody after 24 h
T1 sequence (P01116 1-188 isoform P01116-2 G12D): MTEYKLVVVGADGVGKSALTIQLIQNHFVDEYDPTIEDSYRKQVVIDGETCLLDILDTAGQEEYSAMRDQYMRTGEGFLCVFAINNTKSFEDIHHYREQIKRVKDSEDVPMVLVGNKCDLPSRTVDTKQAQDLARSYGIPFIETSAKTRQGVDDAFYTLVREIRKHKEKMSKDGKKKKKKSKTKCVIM
Outline: (§1)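 Proliferation IC50 comes from CellTiter Glo luminescence after 6 days' exposure of AsPC-1 (3,500 cells/well) to 1:3 dilutions from […] to 1.5 nM. KRAS G12D DC50 derives from in-cell immunofluorescence normalised to β-actin after 24 h treatment of near-confluent AsPC-1 cells over the same range.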

AsPC-1 cells = test: AsPC-1 cell proliferation assay (CellTiter Glo); assay type: cell-based; conditions: Homo sapiens, ASPC1, 144 h, 6 days
Outline: as §1

Compound | DC50 (KRAS (G12D)) [nM] | IC50 (AsPC-1 cells) [nM]
CO[C@@H](C)COc1nc(N2C[C@@H]3C[C@H]2CN3)c2cc(C3CC3)c(-c3c(C)c(F)c(F)c4[nH]ncc34)c(OCc3ccc(-c4cn([C@H](C(=O)N5C[C@H](O)C[C@H]5C(=O)N[C@H](c5ccc(-c6scnc6C)cc5)[C@H](C)O)C(C)C)nn4)cc3)c2n1 [Example 90, (2S,4R)-1-((2S)-2-(4-(4-(((4-((1S,4S)-2,5-diazabicyclo[2.2.1]heptan-2-yl)-6-cyclopropyl-7-(6,7-difluoro-5-methyl-1H-indazol-4-yl)-2-((S)-2-methoxypropoxy)quinazolin-8-yl)oxy)methyl)phenyl)-1H-1,2,3-triazol-1-yl)-3-methylbutanoyl)-4-hydroxy-N-((1R,2S)-2-hydroxy-1-(4-(4-methylthiazol-5-yl)phenyl)propyl)pyrrolidine-2-carboxamide] | < 10 | < 10
CO[C@@H](C)COc1nc(N2C[C@@H]3C[C@H]2CN3)c2cc(C3CC3)c(-c3c(C)c(F)cc4[nH]ncc34)c(OCc3ccc(-c4cn([C@H](C(=O)N5C[C@H](O)C[C@H]5C(=O)N[C@H](C#Cc5cccc6ncsc56)CO)C(C)C)nn4)cc3)c2n1 [Example 92, (2S,4R)-1-((2S)-2-(4-(4-(((4-((1S,4S)-2,5-diazabicyclo[2.2.1]heptan-2-yl)-6-cyclopropyl-7-(6-fluoro-5-methyl-1H-indazol-4-yl)-2-((S)-2-methoxypropoxy)quinazolin-8-yl)oxy)methyl)phenyl)-1H-1,2,3-triazol-1-yl)-3-methylbutanoyl)-N—((R)-4-(benzo[d]thiazol-7-yl)-1-hydroxybut-3-yn-2-yl)-4-hydroxypyrrolidine-2-carboxamide] | < 10 | < 10
Cc1ncsc1-c1ccc([C@H](CO)NC(=O)[C@@H]2C[C@@H](O)CN2C(=O)[C@H](C(C)C)n2cc(-c3ccc(COc4c(-c5c(C)c(F)cc6[nH]ncc56)c(C5CC5)cc5c(N6C[C@@H]7C[C@H]6CN7)nc(OC6CC7COCC7C6)nc45)cc3)nn2)cc1 (stereo partly drawn) [Example 93, (2S,4R)-1-((2S)-2-(4-(4-(((4-((1S,4S)-2,5-diazabicyclo[2.2.1]heptan-2-yl)-6-cyclopropyl-7-(6-fluoro-5-methyl-1H-indazol-4-yl)-2-((hexahydro-1H-cyclopenta[c]furan-5-yl)oxy)quinazolin-8-yl)oxy)methyl)phenyl)-1H-1,2,3-triazol-1-yl)-3-methylbutanoyl)-4-hydroxy-N—((R)-2-hydroxy-1-(4-(4-methylthiazol-5-yl)phenyl)ethyl)pyrrolidine-2-carboxamide] | < 10 | < 10
Cc1ncsc1-c1ccc([C@H](CO)NC(=O)[C@@H]2C[C@@H](O)CN2C(=O)[C@H](C(C)C)n2cc(-c3ccc(COc4c(-c5c(C)c(F)cc6[nH]ncc56)c(C5CCC5)cc5c(N6C[C@@H]7C[C@H]6CN7)nc(OC6CCOCC6)nc45)cc3)nn2)cc1 [Example 94, (2S,4R)-1-((2S)-2-(4-(4-(((4-((1S,4S)-2,5-diazabicyclo[2.2.1]heptan-2-yl)-6-cyclobutyl-7-(6-fluoro-5-methyl-1H-indazol-4-yl)-2-((tetrahydro-2H-pyran-4-yl)oxy)quinazolin-8-yl)oxy)methyl)phenyl)-1H-1,2,3-triazol-1-yl)-3-methylbutanoyl)-4-hydroxy-N—((R)-2-hydroxy-1-(4-(4-methylthiazol-5-yl)phenyl)ethyl)pyrrolidine-2-carboxamide] | < 10 | < 10
CCn1nccc1-c1ccc([C@@H](NC(=O)[C@@H]2C[C@@H](O)CN2C(=O)[C@H](C(C)C)n2cc(-c3ccc(COc4c(-c5c(C)c(F)cc6[nH]ncc56)c(C5CC5)cc5c(N6C[C@@H]7C[C@H]6CN7)nc(OC[C@H](C)OC)nc45)cc3)nn2)[C@@H](O)C(C)C)cc1 [Example 95, (2S,4R)-1-((2S)-2-(4-(4-(((4-((1S,4S)-2,5-diazabicyclo[2.2.1]heptan-2-yl)-6-cyclopropyl-7-(6-fluoro-5-methyl-1H-indazol-4-yl)-2-((S)-2-methoxypropoxy)quinazolin-8-yl)oxy)methyl)phenyl)-1H-1,2,3-triazol-1-yl)-3-methylbutanoyl)-N-((1R,2S)-1-(4-(1-ethyl-1H-pyrazol-5-yl)phenyl)-2-hydroxy-3-methylbutyl)-4-hydroxypyrrolidine-2-carboxamide] | < 10 | < 10
Cc1ncsc1-c1ccc([C@@H](NC(=O)[C@@H]2C[C@@H](O)CN2C(=O)[C@H](C(C)C)n2cc(-c3ccc(COc4c(-c5c(C)c(F)cc6[nH]ncc56)c(C5CC5)cc5c(N6C[C@@H]7C[C@H]6CN7)nc(OC6CCC7(CC6)COC7)nc45)cc3)nn2)[C@H](C)O)cc1 [Example 96, (2S,4R)-1-((2S)-2-(4-(4-(((2-((2-oxaspiro[3.5]nonan-7-yl)oxy)-4-((1S,4S)-2,5-diazabicyclo[2.2.1]heptan-2-yl)-6-cyclopropyl-7-(6-fluoro-5-methyl-1H-indazol-4-yl)quinazolin-8-yl)oxy)methyl)phenyl)-1H-1,2,3-triazol-1-yl)-3-methylbutanoyl)-4-hydroxy-N-((1R,2S)-2-hydroxy-1-(4-(4-methylthiazol-5-yl)phenyl)propyl)pyrrolidine-2-carboxamide] | < 10 | < 10
CO[C@@H](C)COc1nc(N2C[C@@H]3C[C@H]2CN3)c2cc(C3CC3)c(-c3c(C)c(F)c(Cl)c4[nH]ncc34)c(OCc3ccc(-c4cn([C@H](C(=O)N5C[C@H](O)C[C@H]5C(=O)N[C@@H](CO)c5ccc(-c6scnc6C)cc5)C(C)C)nn4)cc3)c2n1 [Example 97, (2S,4R)-1-((2S)-2-(4-(4-(((4-((1S,4S)-2,5-diazabicyclo[2.2.1]heptan-2-yl)-7-(7-chloro-6-fluoro-5-methyl-1H-indazol-4-yl)-6-cyclopropyl-2-((S)-2-methoxypropoxy)quinazolin-8-yl)oxy)methyl)phenyl)-1H-1,2,3-triazol-1-yl)-3-methylbutanoyl)-4-hydroxy-N—((R)-2-hydroxy-1-(4-(4-methylthiazol-5-yl)phenyl)ethyl)pyrrolidine-2-carboxamide] | < 10 | < 10
CO[C@@H](C)COc1nc(N2C[C@@H]3C[C@H]2CN3)c2cc(C3CC3)c(-c3c(C)c(F)cc4[nH]ncc34)c(OCc3ccc(-c4cn([C@H](C(=O)N5C[C@H](O)C[C@H]5C(=O)N[C@H](C#Cc5cccc(F)c5Cl)CO)C(C)C)nn4)cc3)c2n1 [Example 98, (2S,4R)-1-((2S)-2-(4-(4-(((4-((1S,4S)-2,5-diazabicyclo[2.2.1]heptan-2-yl)-6-cyclopropyl-7-(6-fluoro-5-methyl-1H-indazol-4-yl)-2-((S)-2-methoxypropoxy)quinazolin-8-yl)oxy)methyl)phenyl)-1H-1,2,3-triazol-1-yl)-3-methylbutanoyl)-N—((R)-4-(2-chloro-3-fluorophenyl)-1-hydroxybut-3-yn-2-yl)-4-hydroxypyrrolidine-2-carboxamide] | 10 to 100 | < 10
CCn1nccc1-c1ccc([C@H](CO)NC(=O)[C@@H]2C[C@@H](O)CN2C(=O)[C@H](C(C)C)n2cc(-c3ccc(COc4c(-c5c(C)c(F)c(F)c6[nH]ncc56)c(C5CC5)cc5c(N6C[C@@H]7C[C@H]6CN7)nc(O[C@H]6CC[C@H](OC)CC6)nc45)cc3)nn2)cc1 [Example 99, (2S,4R)-1-((2S)-2-(4-(4-(((4-((1S,4S)-2,5-diazabicyclo[2.2.1]heptan-2-yl)-6-cyclopropyl-7-(6,7-difluoro-5-methyl-1H-indazol-4-yl)-2-(((1r,4S)-4-methoxycyclohexyl)oxy)quinazolin-8-yl)oxy)methyl)phenyl)-1H-1,2,3-triazol-1-yl)-3-methylbutanoyl)-N—((R)-1-(4-(1-ethyl-1H-pyrazol-5-yl)phenyl)-2-hydroxyethyl)-4-hydroxypyrrolidine-2-carboxamide] | < 10 | < 10
CCn1nccc1-c1ccc([C@@H](NC(=O)[C@@H]2C[C@@H](O)CN2C(=O)[C@H](C(C)C)n2cc(-c3ccc(COc4c(-c5c(C)c(F)cc6[nH]ncc56)c(C5CC5)cc5c(N6C[C@@H]7C[C@H]6CN7)nc(OC6CC7(COC7)C6)nc45)cc3)nn2)[C@H](C)O)cc1 [Example 100, (2S,4R)-1-((2S)-2-(4-(4-(((2-((2-oxaspiro[3.3]heptan-6-yl)oxy)-4-((1S,4S)-2,5-diazabicyclo[2.2.1]heptan-2-yl)-6-cyclopropyl-7-(6-fluoro-5-methyl-1H-indazol-4-yl)quinazolin-8-yl)oxy)methyl)phenyl)-1H-1,2,3-triazol-1-yl)-3-methylbutanoyl)-N-((1R,2S)-1-(4-(1-ethyl-1H-pyrazol-5-yl)phenyl)-2-hydroxypropyl)-4-hydroxypyrrolidine-2-carboxamide] | < 10 | < 10
CCn1nccc1-c1ccc([C@H](CO)NC(=O)[C@@H]2C[C@@H](O)CN2C(=O)[C@H](C(C)C)n2cc(-c3ccc(COc4c(-c5c(C)c(F)cc6[nH]ncc56)c(C5CC5)cc5c(N6C[C@@H]7C[C@H]6CN7)nc(OC6CC7(CCOC7)C6)nc45)cc3)nn2)cc1 (stereo partly drawn) [Example 101, (2S,4R)-1-((2S)-2-(4-(4-(((2-((6-oxaspiro[3.4]octan-2-yl)oxy)-4-((1S,4S)-2,5-diazabicyclo[2.2.1]heptan-2-yl)-6-cyclopropyl-7-(6-fluoro-5-methyl-1H-indazol-4-yl)quinazolin-8-yl)oxy)methyl)phenyl)-1H-1,2,3-triazol-1-yl)-3-methylbutanoyl)-N—((R)-1-(4-(1-ethyl-1H-pyrazol-5-yl)phenyl)-2-hydroxyethyl)-4-hydroxypyrrolidine-2-carboxamide] | < 10 | < 10
